For three compounds, IC50 and EC50 results are on record in ChEMBL document CHEMBL1201862, “PubChem BioAssay data set” (2004).

The source made the active and inactive calls.

For assay [1], the target named is Nuclear receptor ROR-gamma (Homo sapiens, UniProt P51449). The assay is described as follows: ROR modulator nuclear receptor reporter panel, late-stage follow-up, ROR modulator project, cell-based, luciferase reporter, panel member RORG (AID 2117). (Reporter assays use an easily measured gene product as a stand-in for the process of interest.)
Sequence of Nuclear receptor ROR-gamma (P51449 whole entry): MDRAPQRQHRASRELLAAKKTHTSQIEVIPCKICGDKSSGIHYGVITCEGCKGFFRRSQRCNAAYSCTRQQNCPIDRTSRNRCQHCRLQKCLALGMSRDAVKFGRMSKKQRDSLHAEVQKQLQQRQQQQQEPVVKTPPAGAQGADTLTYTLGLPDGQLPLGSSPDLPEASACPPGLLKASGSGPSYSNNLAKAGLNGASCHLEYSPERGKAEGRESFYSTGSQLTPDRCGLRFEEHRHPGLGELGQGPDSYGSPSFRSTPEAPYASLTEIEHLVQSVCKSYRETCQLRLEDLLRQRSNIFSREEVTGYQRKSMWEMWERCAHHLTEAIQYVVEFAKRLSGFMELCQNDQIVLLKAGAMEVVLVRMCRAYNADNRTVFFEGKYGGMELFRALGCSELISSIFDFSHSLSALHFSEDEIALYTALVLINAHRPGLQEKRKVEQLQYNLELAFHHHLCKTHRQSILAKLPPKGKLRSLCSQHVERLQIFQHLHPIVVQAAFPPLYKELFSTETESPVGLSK
The target in assay [2] is Nuclear receptor ROR-alpha (Homo sapiens, UniProt P35398). The assay is described as follows: ROR modulator nuclear receptor reporter panel, late-stage follow-up, ROR modulator project, cell-based, luciferase reporter, panel member RORA (AID 2117).
Sequence of Nuclear receptor ROR-alpha (P35398 whole entry, the tested form may be a part): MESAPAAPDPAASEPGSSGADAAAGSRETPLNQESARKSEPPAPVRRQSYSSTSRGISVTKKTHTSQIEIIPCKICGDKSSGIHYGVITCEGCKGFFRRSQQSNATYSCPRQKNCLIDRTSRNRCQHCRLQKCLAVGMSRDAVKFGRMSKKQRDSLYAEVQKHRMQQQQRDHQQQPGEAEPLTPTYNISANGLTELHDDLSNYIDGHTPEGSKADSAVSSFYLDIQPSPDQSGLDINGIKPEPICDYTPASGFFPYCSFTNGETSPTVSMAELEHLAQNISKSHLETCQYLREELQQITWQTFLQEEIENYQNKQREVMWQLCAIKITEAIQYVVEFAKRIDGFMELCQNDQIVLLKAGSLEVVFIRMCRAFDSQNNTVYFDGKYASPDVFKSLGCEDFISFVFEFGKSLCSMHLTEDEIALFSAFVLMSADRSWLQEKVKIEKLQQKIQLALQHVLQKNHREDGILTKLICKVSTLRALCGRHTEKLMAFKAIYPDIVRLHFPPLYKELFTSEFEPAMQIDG
Assay [3] in a line: Fluorescence-based cell-based high throughput dose response assay for inhibitors of the interaction of nucleotide-binding oligomerization domain containing 2 (NOD2) and the receptor-interacting serine-threonine kinase 2 (RIPK2). It counts as functional. Particulars: Homo sapiens.
The target of assay [4] is Beta Lactamase (Pseudomonas aeruginosa, UniProt Q932Y6). In words: beta-lactamase reporter inhibitor potency, dose response, artefact control for NOD2-RIPK2 interaction inhibitor project, BLA reporter cells, FRET fluorescence (AID 651552). It counts as functional, cell-based.
Sequence of Beta Lactamase (Q932Y6 whole entry): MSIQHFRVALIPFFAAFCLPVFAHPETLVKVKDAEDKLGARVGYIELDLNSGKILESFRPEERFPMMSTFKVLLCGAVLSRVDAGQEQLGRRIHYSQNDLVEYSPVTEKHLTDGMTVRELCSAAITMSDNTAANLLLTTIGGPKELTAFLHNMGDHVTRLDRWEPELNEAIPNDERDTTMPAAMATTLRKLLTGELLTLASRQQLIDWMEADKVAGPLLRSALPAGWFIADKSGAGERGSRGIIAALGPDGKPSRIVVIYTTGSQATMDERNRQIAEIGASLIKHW
The target in assay [5] is T1, G-protein coupled receptor 35 (Homo sapiens, UniProt Q9HC97). The assay is described as follows: SAR analysis of Agonists of the GPR35 Receptor using an Image-Based Assay - Set 4. [Related pubchem assays (depositor defined):AID2013, AID2026]. It counts as functional.
T1 sequence (Q9HC97 whole entry): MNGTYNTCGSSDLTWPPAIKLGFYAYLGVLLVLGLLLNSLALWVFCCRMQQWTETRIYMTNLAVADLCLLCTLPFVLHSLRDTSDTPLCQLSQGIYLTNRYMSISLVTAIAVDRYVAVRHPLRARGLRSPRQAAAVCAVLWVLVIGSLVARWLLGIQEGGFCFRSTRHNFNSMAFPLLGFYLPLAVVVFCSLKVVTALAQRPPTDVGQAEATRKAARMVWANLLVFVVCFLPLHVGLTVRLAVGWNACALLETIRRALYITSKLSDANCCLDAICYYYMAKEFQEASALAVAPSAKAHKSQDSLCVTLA
Assay [6] concerns the target T2, Cannabinoid receptor 1 (Homo sapiens, UniProt P21554). The assay is described as follows: SAR analysis of agonists of the Cannabinoid Receptor 1 using an Image-Based Assay - Set 4. [Related pubchem assays (depositor defined):AID2013, AID2026]. In kind it is functional.
Assay [7] deals with T1, G-protein coupled receptor 35. In words: SAR analysis of Antagonists of the GPR35 Receptor using an Image-Based Assay - Set 6. [Related pubchem assays (depositor defined):AID2013, AID2026]. It counts as functional.
Assay [8] addresses T2, Cannabinoid receptor 1. In words: SAR analysis of antagonists of the Cannabinoid Receptor 1 using an Image-Based Assay - Set 4. [Related pubchem assays (depositor defined):AID2013, AID2026]. In kind it is functional.
In assay [9] the target is G-protein coupled receptor 55 (Homo sapiens, UniProt Q9Y2T6). The assay is described as follows: SAR Analysis of Selective Antagonists of GPR55 using an Image-Based Assay - Set 4. [Related pubchem assays (depositor defined):AID2013, AID2026]. In kind it is functional.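 Also: antagonism of response to 5 µM lysophosphatidylinositol agonist.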
Sequence of G-protein coupled receptor 55 (Q9Y2T6 whole entry): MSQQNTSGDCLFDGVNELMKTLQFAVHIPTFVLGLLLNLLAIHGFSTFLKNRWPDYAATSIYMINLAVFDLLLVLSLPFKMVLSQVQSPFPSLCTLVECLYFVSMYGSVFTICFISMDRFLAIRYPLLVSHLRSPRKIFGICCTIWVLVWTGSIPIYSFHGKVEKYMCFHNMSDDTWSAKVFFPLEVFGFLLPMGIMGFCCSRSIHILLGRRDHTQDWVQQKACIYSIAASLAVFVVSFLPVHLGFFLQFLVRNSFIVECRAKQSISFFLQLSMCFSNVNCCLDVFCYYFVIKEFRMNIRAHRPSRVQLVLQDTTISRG
Assay [10] deals with T3, Cannabinoid receptor 2 (Homo sapiens, UniProt P34972). In words: SAR analysis of antagonists of the Cannabinoid Receptor 2 using an Image-Based Assay - Set 3. [Related pubchem assays (depositor defined):AID2013, AID2026]. It counts as functional.
T3 sequence (P34972 whole entry): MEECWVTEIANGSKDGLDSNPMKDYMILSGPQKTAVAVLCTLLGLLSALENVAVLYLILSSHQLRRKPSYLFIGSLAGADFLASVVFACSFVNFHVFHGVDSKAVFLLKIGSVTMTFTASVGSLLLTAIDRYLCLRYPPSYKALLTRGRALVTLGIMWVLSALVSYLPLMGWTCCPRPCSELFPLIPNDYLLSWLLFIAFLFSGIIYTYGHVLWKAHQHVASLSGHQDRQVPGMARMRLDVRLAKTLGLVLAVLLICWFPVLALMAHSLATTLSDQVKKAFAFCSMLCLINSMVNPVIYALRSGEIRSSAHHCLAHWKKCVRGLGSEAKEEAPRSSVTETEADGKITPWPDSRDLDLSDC
The target of assay [11] is T3, Cannabinoid receptor 2. In words: SAR analysis of agonists of the Cannabinoid Receptor 2 using an Image-Based Assay - Set 3. [Related pubchem assays (depositor defined):AID2013, AID2026]. It counts as functional.
The target in assay [12] is Tyrosine-protein phosphatase non-receptor type 12 (Homo sapiens, UniProt Q05209). In words: SAR Selectivity Analysis of small molecule inhibitors of PEST using pCAP in a fluorescence assay. [Related pubchem assays (depositor defined):AID1779, AID1784, AID2135]. In kind it is functional.
Sequence of Tyrosine-protein phosphatase non-receptor type 12 (Q05209 whole entry): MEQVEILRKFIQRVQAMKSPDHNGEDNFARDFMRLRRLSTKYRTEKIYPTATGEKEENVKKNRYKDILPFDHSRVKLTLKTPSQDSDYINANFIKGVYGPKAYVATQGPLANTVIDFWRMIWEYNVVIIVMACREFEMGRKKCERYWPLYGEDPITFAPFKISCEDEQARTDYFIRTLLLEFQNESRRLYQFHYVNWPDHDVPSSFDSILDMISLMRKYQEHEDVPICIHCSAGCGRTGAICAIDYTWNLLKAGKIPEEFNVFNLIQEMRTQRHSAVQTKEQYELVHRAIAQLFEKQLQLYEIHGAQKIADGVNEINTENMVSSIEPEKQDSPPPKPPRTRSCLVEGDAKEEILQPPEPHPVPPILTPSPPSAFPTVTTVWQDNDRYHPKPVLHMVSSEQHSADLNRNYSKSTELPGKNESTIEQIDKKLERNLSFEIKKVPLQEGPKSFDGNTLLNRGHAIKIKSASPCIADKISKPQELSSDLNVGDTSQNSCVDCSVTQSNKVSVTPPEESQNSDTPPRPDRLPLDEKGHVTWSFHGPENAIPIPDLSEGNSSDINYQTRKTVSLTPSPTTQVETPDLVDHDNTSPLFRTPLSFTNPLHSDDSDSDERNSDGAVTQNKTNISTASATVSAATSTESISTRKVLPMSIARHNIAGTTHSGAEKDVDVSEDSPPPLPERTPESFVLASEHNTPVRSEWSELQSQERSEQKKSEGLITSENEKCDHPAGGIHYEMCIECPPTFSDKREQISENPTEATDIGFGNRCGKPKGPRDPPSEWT
The target of assay [13] is T4, Tyrosine-protein phosphatase non-receptor type 22 (Homo sapiens, UniProt Q9Y2R2).
T4 sequence (Q9Y2R2 whole entry): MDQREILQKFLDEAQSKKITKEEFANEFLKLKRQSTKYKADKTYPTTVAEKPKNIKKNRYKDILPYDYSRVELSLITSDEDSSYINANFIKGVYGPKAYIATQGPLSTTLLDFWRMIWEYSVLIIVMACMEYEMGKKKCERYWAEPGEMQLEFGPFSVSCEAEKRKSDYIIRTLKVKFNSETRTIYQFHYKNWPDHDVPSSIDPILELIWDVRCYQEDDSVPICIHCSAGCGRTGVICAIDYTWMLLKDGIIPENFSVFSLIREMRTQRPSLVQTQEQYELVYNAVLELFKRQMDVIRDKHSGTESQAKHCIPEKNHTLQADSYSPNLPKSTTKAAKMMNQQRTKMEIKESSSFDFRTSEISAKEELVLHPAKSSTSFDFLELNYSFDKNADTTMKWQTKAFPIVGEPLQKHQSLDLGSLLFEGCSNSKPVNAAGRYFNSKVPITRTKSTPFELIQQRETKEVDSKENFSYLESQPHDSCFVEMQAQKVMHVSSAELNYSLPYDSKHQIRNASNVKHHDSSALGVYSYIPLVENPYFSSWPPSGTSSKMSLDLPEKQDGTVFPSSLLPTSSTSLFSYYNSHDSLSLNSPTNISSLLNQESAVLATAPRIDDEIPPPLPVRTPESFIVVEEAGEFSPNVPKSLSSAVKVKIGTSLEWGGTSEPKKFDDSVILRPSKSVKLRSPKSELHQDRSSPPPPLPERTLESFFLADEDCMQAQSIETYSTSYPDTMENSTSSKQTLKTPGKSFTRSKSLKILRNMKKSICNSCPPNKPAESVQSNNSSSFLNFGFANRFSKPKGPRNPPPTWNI
The assay is described as follows: SAR LYP1 Fluorescent Assay using OMFP substrate for In Vitro dose response studies - Set 3. [Related pubchem assays (depositor defined):AID1779, AID1784, AID2140, AID2686]. It counts as functional.

For assay [14], the target named is T5, Tyrosine-protein phosphatase non-receptor type 7 (Homo sapiens, UniProt P35236).
T5 sequence (P35236 whole entry): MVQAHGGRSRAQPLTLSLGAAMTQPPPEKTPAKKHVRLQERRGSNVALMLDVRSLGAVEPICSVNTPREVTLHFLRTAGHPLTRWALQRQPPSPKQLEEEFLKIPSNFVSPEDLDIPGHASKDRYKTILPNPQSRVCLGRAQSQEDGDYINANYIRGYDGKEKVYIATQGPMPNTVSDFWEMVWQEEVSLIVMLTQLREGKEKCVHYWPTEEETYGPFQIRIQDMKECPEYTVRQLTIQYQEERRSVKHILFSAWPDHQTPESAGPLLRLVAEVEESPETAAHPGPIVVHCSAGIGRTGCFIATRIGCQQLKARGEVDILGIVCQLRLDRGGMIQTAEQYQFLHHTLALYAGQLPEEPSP
In words: redox-dependent HePTP inhibition, mechanism study, biochemical, fluorescence (AID 2068). In kind it is functional.

For assay [15], the target named is T5, Tyrosine-protein phosphatase non-receptor type 7. In words: HePTP (PTPN7) phosphatase inhibitor potency, SAR follow-up, biochemical, set 2 (AID 449736). In kind it is functional.
Assay [16] deals with T4, Tyrosine-protein phosphatase non-receptor type 22. The assay is described as follows: LYP (PTPN22) phosphatase inhibitor potency, SAR follow-up, biochemical, pCAP fluorogenic substrate, fluorescence, set 3 (AID 449727). In kind it is functional.
For assay [17], the target named is Dual specificity protein phosphatase 3 (Homo sapiens, UniProt P51452). In words: SAR VHR1 Fluorescent Assay for In Vitro dose response studies Set 2. [Related pubchem assays (depositor defined):AID1654, AID1661, AID1878]. In kind it is functional.
Sequence of Dual specificity protein phosphatase 3 (P51452 whole entry): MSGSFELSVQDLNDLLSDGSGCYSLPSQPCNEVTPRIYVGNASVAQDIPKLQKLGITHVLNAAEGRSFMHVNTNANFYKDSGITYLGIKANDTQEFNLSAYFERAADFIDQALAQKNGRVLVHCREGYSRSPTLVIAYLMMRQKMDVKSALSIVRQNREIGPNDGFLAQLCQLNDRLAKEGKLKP
For assay [18], the target named is T6, Dual specificity protein phosphatase 6 (Rattus norvegicus, UniProt Q64346).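 Also: confirmatory in vitro dose-response testing of MKP-3 inhibition; recombinant His-tagged MKP-3 made in E. coli BL21 with OMFP substrate.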
T6 sequence (Q64346 whole entry): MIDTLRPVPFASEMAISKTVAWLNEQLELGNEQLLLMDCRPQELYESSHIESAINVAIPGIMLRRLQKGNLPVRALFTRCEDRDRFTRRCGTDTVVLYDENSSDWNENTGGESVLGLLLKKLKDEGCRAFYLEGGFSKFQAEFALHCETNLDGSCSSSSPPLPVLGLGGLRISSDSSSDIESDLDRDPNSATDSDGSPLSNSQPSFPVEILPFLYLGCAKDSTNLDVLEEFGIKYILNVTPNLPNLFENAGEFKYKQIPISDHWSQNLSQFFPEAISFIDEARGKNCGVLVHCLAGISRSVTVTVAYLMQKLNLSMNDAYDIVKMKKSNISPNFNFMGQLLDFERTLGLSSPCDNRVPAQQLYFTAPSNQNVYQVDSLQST
It counts as functional.

T2 sequence (P21554 whole entry): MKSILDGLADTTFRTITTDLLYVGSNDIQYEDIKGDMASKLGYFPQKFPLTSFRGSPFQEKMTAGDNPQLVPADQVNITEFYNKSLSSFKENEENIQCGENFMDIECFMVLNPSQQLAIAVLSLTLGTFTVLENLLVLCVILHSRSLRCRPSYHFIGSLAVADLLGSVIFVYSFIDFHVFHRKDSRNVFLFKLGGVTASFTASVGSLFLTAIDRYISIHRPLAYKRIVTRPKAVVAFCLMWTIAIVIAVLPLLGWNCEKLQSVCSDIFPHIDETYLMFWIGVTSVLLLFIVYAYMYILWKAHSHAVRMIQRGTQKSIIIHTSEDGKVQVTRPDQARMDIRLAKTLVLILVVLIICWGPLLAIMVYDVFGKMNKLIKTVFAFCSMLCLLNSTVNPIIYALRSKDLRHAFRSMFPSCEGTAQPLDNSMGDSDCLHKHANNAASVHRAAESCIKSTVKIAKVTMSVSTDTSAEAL

By IC50 is commonly meant the point on the concentration scale where inhibition reaches its midpoint. In the case of `O=S(=O)(Nc1ccc(C(O)(C(F)(F)F)C(F)(F)F)cc1)c1ccc(Cl)c2nonc12`, the IC50 in [1] was 2.08 µM (active); in [2], 7.28 µM (active); in assay [3], 14.3 µM (inactive); in assay [4], 41.6 µM (inactive).
What is called EC50 is the concentration giving half of the maximal effect. For `COc1ccc(-c2nnc(C)c3nn(-c4ccc(C)cc4)cc23)cc1`, the EC50 in assay [5], in [6] and in assay [11] was > 32 µM (inactive) each time. The IC50 was > 32 µM (inactive) in assay [7], 3.56 µM (active) in [8], > 32 µM (inactive) in [9] and > 15.6 µM (inactive) in [10].
For the compound `CCOc1cc(/C=C2\SC(=O)N(CC(=O)Nc3ccc(C)cc3)C2=O)cc(Cl)c1OCC(=O)OC`, the IC50 in [12] is > 100 µM (inactive); in assay [13], > 100 µM (inactive); in assay [14] it was 17.9 µM (active); in assay [15] it was 9.66 µM (active); in assay [16], > 100 µM (inactive); in [17], > 100 µM (inactive). Moreover, the IC50 in [18] is > 100 µM (inactive).
